From article PMC3765866, “Identification of novel PTPRQ phosphatase inhibitors based on the virtual screening with docking simulations” (Theoretical Biology & Medical Modelling, 2013)
Where two headings read alike, the source gives them in different places.

Key:
Type in all cases: biochemical
PTPRQ [1] = target: T1, PTPRQ (Homo sapiens, UniProt Q9UMZ3); test: PTPRQ enzyme inhibition assay monitoring hydrolysis of pNPP; conditions: for inhibition at 100 µM: inhibitor 100 μM, duplicates
T1 construct: The catalytic domain of PTPRQ (PTPRQ-C, residues 2661–2948) was subcloned into pET28a; His tag; made in house; host or cells: Escherichia coli BL21 (DE3)
T1 sequence (Q9UMZ3 2015-2302 limits assumed): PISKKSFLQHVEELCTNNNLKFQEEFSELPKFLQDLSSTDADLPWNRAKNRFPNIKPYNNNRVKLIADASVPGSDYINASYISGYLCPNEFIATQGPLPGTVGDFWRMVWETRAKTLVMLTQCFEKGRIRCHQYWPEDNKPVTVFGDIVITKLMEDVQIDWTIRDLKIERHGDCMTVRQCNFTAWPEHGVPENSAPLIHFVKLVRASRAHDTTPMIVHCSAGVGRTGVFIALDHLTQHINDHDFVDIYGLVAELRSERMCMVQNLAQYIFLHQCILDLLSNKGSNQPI
Procedure: The catalytic domain of PTPRQ (PTPRQ-C, residues 2661–2948) was subcloned into pET28a and overexpressed using Escherichia coli BL21 (DE3) strain. Cells were grown at 291 K after induction with 0.1 mM IPTG for 20 hours. His-tagged PTPRQ-C was purified by nickel-affinity chromatography. 150 compounds selected from the precedent virtual screening were evaluated for their in vitro inhibitory activity against the recombinant human PTPRQ. Initial inhibitor screening was performed by monitoring the extent of hydrolysis of p-Nitrophenyl Phosphate (pNPP) with a […] assay. The purified PTPRQ-C (1.5 μM), pNPP (5 mM), and a candidate inhibitor were incubated in the reaction mixture containing 50 mM Bis-Tris (pH 6.0), 2 mM dithiothreitol for 60 minutes. This enzymatic reaction was stopped with the addition of sodium hydroxide (0.5 M). The phosphatase activities were then checked by the absorbance changes due to the hydrolysis of the substrate at 405 nm. IC50 values of the inhibitors were determined from direct regression curve analysis.

[2] = target: T2, PTP receptor type O (PTPRO) (Homo sapiens, UniProt Q16827); test: Selectivity inhibition assay against PTPRO; conditions: read-out: % inhibition at 100 μM for PTPRO
T2 sequence (Q16827 30-1216): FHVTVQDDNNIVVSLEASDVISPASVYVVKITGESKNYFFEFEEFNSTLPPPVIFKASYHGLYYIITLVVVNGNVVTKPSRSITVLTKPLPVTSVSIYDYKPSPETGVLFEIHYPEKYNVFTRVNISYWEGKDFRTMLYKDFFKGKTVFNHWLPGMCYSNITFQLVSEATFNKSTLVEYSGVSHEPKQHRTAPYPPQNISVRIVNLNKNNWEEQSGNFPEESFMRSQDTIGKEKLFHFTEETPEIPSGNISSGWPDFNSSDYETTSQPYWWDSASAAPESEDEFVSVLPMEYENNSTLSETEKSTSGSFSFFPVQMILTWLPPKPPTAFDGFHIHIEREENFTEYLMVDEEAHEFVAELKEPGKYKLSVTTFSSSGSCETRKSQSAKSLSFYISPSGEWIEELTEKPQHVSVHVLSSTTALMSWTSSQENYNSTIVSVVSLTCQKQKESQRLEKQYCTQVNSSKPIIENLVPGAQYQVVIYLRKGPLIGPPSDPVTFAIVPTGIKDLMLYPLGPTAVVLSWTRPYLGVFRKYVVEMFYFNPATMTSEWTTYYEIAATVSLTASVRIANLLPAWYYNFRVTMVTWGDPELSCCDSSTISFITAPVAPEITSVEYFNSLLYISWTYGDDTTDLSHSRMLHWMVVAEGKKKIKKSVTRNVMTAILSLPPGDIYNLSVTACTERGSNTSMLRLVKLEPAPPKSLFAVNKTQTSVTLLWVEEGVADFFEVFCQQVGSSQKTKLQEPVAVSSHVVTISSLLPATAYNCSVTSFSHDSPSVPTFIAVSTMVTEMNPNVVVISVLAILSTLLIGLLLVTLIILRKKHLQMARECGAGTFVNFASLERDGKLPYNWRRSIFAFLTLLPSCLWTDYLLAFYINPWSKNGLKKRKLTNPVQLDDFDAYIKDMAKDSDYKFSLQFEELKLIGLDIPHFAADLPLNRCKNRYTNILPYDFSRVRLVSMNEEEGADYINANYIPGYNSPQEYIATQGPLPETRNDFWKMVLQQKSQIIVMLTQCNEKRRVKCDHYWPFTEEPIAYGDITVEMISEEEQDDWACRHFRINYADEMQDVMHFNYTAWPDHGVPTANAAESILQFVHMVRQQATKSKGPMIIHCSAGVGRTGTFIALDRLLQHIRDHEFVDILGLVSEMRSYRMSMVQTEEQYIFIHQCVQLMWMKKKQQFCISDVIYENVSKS
Procedure: Because the selectivity has been one of the most important issues in the development of phosphatase inhibitors, we compared the inhibitory activities of 1–6 for PTPRQ to those for its homologous protein, PTP receptor type O (PTPRO). These inhibition assays for selectivity were done in duplicates at the inhibitor concentration of 100 μM. […] The simultaneous inhibitions of PTPRQ and PTPRO by 1–6 are actually not surprising because they share a highly conserved catalytic module. To obtain the specific inhibitors for PTPRQ, therefore, it seems that some chemical groups should be added to 1–6 in such a way that the resulting derivatives can be stabilized not only in the active site but also in other peripheral binding pockets.

PTPRQ [3] = target: T1, PTPRQ; test: Inhibition of hydrolysis of PI(3,4,5)P3 by PTPRQ (malachite green); conditions: 1.5 μM PTPRQ-C, 300 μM PI(3,4,5)P3, 100 μM inhibitor
Procedure: Six PTPRQ inhibitors identified under the above reaction conditions were further investigated using PI(3,4,5)P3 as the substrate (Cayman Chemical). The enzymatic activity of PTPRQ was measured in 80 μL reaction mixture containing 50 mM Tris–HCl (pH 6.0), 10 mM dithiothreitol, 300 μM PI(3,4,5)P3, 100 μM inhibitor, and 1.5 μM of the purified catalytic domain of PTPRQ. The mixture was incubated for 60 minutes at 310 K, and the enzymatic reaction was stopped by the addition of 20 μL of malachite green/ammonium molybdate reagent (Bioassay systems). The absorbance was measured at 650 nm using a plate reader.

[4] = pNPP 5 mM substrate, 1.5 μM PTPRQ-C, pH 6.0, 60 minutes, read-out: IC50 against PTPRQ

| SMILES | inhibition at 100 µM (PTPRQ [1]) [%] | IC50 (PTPRQ [1]; [4]) [µM] | inhibition at 100 µM ([2]; inhibitor 100 μM, duplicates) [%] | IC50 (PTPRQ [1]) [µM] | inhibitory activity against the hydrolysis of PI(3,4,5)P3 by PTPRQ (PTPRQ [3]) | inhibition at 100 µM [2] [%] |
| --- | --- | --- | --- | --- | --- | --- |
| O=C(O)CCN1C(=O)/C(=C\c2cccc(Oc3ccccc3)c2)SC1=S [Compound 5] | 62.5 ± 1.6 | 65.3 | 95 ± 0.8 | – | – | – |
| CCOC(=O)Cn1cc(/C=C2/C(=O)NC(=O)N(c3cc(C)cc(C)c3)C2=O)c2ccccc21 [Compound 1] | 71.1 ± 0.8 | – | – | 29.9 | significant inhibitory activity | 94.4 ± 0.5 |
| CN1C(=O)/C(=C/c2ccc(OCc3cccc([N+](=O)[O-])c3)cc2)S/C1=N/c1cccc(C(=O)O)c1 [Compound 3] | 50.9 ± 2.2 | 63.8 | 48.7 ± 2.1 | – | effect of reducing PTPRQ activity | – |
| O=C1NC(=S)S/C1=C\c1cn(-c2ccccc2)nc1-c1ccccc1 [Compound 2] | 57.7 ± 0.4 | 85.7 | 94.2 ± 1.5 | – | significant inhibitory activity | – |
| COC(=O)c1cccc(-c2ccc(/C=C3\C(=O)N(c4cccc(C(=O)O)c4)N=C3C)o2)c1 [Compound 6] | 57 ± 2.1 | 73.1 | 81.2 ± 0.9 | – | effect of reducing PTPRQ activity | – |
| COc1cccc(-c2nn(-c3ccccc3)cc2/C=C2\SC(=S)N(CCC(=O)O)C2=O)c1 [Compound 4] | 82.6 ± 0.2 | 44.8 | 95 ± 3.5 | – | – | – |
